The values below are quoted from earlier work in patent publication US20040067252A1, “Novel modified release formulation” (priority 2001, published 2004).

≈ marks a conversion by molar mass, not a printed value.

For this data set the following is noted: at 25° C.

`Cn1c(=O)c2[nH]cnc2n(C)c1=O` [theophylline]: the water solubility is 8.3 mg/mL (≈ 46.1 mM).
